{
  "source": "patent US11510876B2",
  "about": "“In vivo targeting of extracellular vesicles” (Mayo Foundation for Medical Education and Research, priority 2019, dated 2022)",
  "key": {"[1]": {"test_system": "^89Zr labeled PC-3 derived exosomes", "assay": "PET imaging of methylene blue mediated homing of intravenously injected 89Zr labeled exosomes to the injected hind paw (FIG. 11)", "type": "in vivo, mouse", "settings": "1% methylene blue in Lactated Ringer's Solution injected in hind limb paw 1 h after i.v. exosomes; PET 1 h later; opposite paw (Ringer's only) showed no accumulation", "protocol": "For PET image 456, the ^89Zr labeled PC-3 derived exosomes were intravenously injected (via tail vein). Then after one hour, 1% methylene blue (in Lactated Ringer's Solution) was injected in a hind limb paw. The opposite hind limb paw received a methylene blue-free and sterile Lactated Ringer's Solution. One hour after administering the methylene blue solution, the PET image 456 was taken. […] Thus, methylene blue homed the ^89Zr labeled PC-3 derived exosomes from circulation to the paw region, effectively showing that the ^89Zr labeled PC-3 derived exosomes targeted methylene blue."}, "[2]": {"test_system": "^89Zr labeled stem cell derived exosomes", "assay": "PET imaging of methylene blue mediated homing of intravenously injected 89Zr labeled exosomes to the injected hind paw (FIG. 11)", "type": "in vivo, mouse", "settings": "1% methylene blue in Lactated Ringer's Solution injected in hind limb paw 1 h after i.v. exosomes; PET 1 h later; opposite paw (Ringer's only) showed no accumulation", "description": "FIG. 11 illustrates four PET images of injected ^89Zr labeled exosomes in mice. PET images 450, 452 utilized stem cell derived exosomes, whereas PET images 454, 456 illustrate prostate cancer (PC-3) derived exosomes. Both groups of exosomes were labeled with ^89Zr, a positron emitter, which allows the exosomes to be tracked within the mouse by PET imaging. As illustrated in some or all of the PET images 450, 452, 454, 456, the heart/lungs 460, the liver 462, the gut 464/468 and 466/470 show “hotspots” of the ^89Zr labeled exosomes (homing agent mediated accumulation zones of the ^89Zr labeled exosomes). […] For PET image 452, the ^89Zr labeled stem cell derived exosomes were intravenously injected (via tail vein). Then after one hour, 1% methylene blue (in Lactated Ringer's Solution) was injected in a hind limb paw. The opposite hind limb paw received a methylene blue-free and sterile Lactated Ringer's Solution. One hour after administering the methylene blue solution, the PET image 452 was taken. […] Thus, the methylene blue homed the ^89Zr linked stem cell derived exosomes from circulation, effectively showing that the ^89Zr labeled stem cell derived exosomes targeted methylene blue."}, "[3]": {"test_system": "^89Zr labeled A549 lung cancer derived exosomes", "assay": "PET imaging of methylene blue mediated homing of intravenously injected 89Zr labeled exosomes to the injected hind paw (FIG. 13)", "type": "in vivo, mouse", "settings": "1% methylene blue in hind limb paw 1 h after i.v. exosomes; PET 1 h later; opposite paw (Ringer's only) showed no accumulation", "protocol": "(§1) FIG. 13 illustrates methylene blue was able to home exosomes irrespective of their cellular origin. PET image 550 and 554 was taken one hour after the mouse was intravenously injected (via tail vein) with the ^89Zr labeled A549 lung cancer derived exosomes and SK-N-SH brain cancer (bone marrow metastasis) derived exosomes, respectively. […] Then after one hour, 1% methylene blue (in Lactated Ringer's Solution) was injected in a hind limb paw. The opposite hind limb paw received a methylene blue-free and sterile Lactated Ringer's Solution. One hour after administering the methylene blue solution, the PET image 552 and 556 was taken. […] Thus, the methylene blue homed the ^89Zr labeled A549 and SK-N-SH derived exosomes from circulation showing that it can home extracellular vesicles independent of their cellular origin."}, "[4]": {"test_system": "SK-N-SH brain cancer (bone marrow metastasis) derived exosomes", "assay": "PET imaging of methylene blue mediated homing of intravenously injected 89Zr labeled exosomes to the injected hind paw (FIG. 13)", "type": "in vivo, mouse", "settings": "1% methylene blue in hind limb paw 1 h after i.v. exosomes; PET 1 h later; opposite paw (Ringer's only) showed no accumulation", "protocol": "as §1"}, "[5]": {"test_system": "^89Zr labeled stem cell derived exosomes", "assay": "Time-lapse PET imaging of the bio-distribution of 89Zr labeled exosomes after methylene blue paw injections (FIG. 12)", "type": "in vivo, mouse", "protocol": "FIG. 12 illustrates four time-lapse PET images showing the bio-distribution of injected ^89Zr labeled stem cell derived exosomes in a mouse. Similarly to the experiment illustrated in FIG. 11, stem cell derived exosomes were labeled with ^89Zr, a positron emitter, which allows the exosomes to be tracked within the mouse by PET imaging. Then, the ^89Zr labeled stem cell derived exosomes were injected intravenously into the mouse, and subsequently imaged thirty minutes after the injection, shown in PET image 500. Illustrated in PET image 500, and also the other PET images 502, 504, 506, are “hotspots” of the administered ^89Zr labeled stem cell derived exosomes (homing agent mediated accumulation zones of the ^89Zr labeled exosomes) at specific locations within the mouse (e.g., the heart 510, the liver 512, and the gut 514). […] Thus, the ^89Zr labeled stem cell derived exosomes were effectively homed to the tissue that contained methylene blue. After administering the methylene blue solution, 20 additional hours were lapsed before completing a second imaging of the mouse (at PET image 504). […] Then, immediately after acquiring PET image 504, the mouse was injected with the methylene blue solution at the hind paw (designated numeral 520), opposite the first hind paw injected with methylene blue (designated numeral 516). One hour after the second injection at the opposite hind paw at reference numeral 520, PET image 506 was acquired."}, "extracellular vesicles": {"test_system": "extracellular vesicles", "assay": "Homing of extracellular vesicles to the target site by an injected homing agent", "type": "in vivo", "settings": "subcutaneous area in foot pad of a mouse, 500 ng also printed as 1.6 nmol", "description": "We have discovered that non-toxic doses of phenothiazine derivatives or polyethylene glycols are useful for the homing of exogenous extracellular vesicles to specific tissues in the body. This discovery has many potential applications in therapy and diagnosis in its ability to spatially concentrate extracellular vesicles. These methods can improve the homing of extracellular vesicles to diseased tissues, as well as enriched sampling and extraction of extracellular vesicles for diagnostics at low cost. Rather than using extensively modified extracellular vesicles (e.g., with biological and/or chemical modifications), which can be complex and costly, extracellular vesicles can be targeted by using little to no modification of the extracellular vesicles themselves. […] Our initial findings show broad applicability with regard to the extracellular vesicles type/source and the target tissue in the context of homing using phenothiazine derivatives or polyethylene glycols. At present, the homing is effective with as low as 500 ng (1.6 nmol) of methylene blue injected at the target site. In this example, the target site is the subcutaneous area in foot pad of a mouse, with good perfusion of the methylene blue, so the effective amount of methylene blue for extracellular vesicle homing could be much lower than 500 ng (1.6 nmol)."}},
  "data": [
    {"smiles": "CN(C)c1ccc2nc3ccc(=[N+](C)C)cc-3sc2c1", "note": "[methylene blue]", "values": [
      {"measurement": "accumulation of ^89Zr labeled PC-3 derived exosomes in the hind paw that received methylene blue", "setting": "[1]", "value": "significant accumulation"},
      {"measurement": "accumulation of ^89Zr labeled stem cell derived exosomes in the hind paw that received methylene blue", "setting": "[2]", "value": "significant accumulation"},
      {"measurement": "accumulation of ^89Zr labeled A549 derived exosomes in the hind paw that received methylene blue (PET image 552)", "setting": "[3]", "value": "significant accumulation"},
      {"measurement": "accumulation of ^89Zr labeled SK-N-SH derived exosomes in the hind paw that received methylene blue (PET image 556)", "setting": "[4]", "value": "significant accumulation"},
      {"measurement": "homing of exosomes to methylene blue injection sites (PET image 502)", "setting": "[5]; 1% methylene blue injected in a hind paw and a front paw 19 hours after i.v. exosomes, imaged 3 h post-methylene blue injection", "value": "homing of exosome to hind paw"},
      {"measurement": "signal from exosomes at methylene blue injection sites (PET image 504)", "setting": "[5]; 20 additional hours after the methylene blue injection, hind paw and front paw", "value": "persistence of signal"},
      {"measurement": "accumulation of exosomes at second methylene blue injection site, opposite hind paw (PET image 506)", "setting": "[5]; second methylene blue injection about two days after exosome injection, PET one hour later", "value": "accumulated at the target site 520"},
      {"measurement": "lowest amount at which homing is effective", "setting": "extracellular vesicles", "value": 500, "unit": "ng"}
    ]}
  ]
}
